Measurements from patent publication US20250195521A1 (Revolution Medicines, Inc., priority 2020, published 2025).
Read-outs that look alike come from different tables or passages of the source.

Key:
[1] = target: KRAS G13C (Homo sapiens (Human), UniProt P01116+P62937, G13C); test: Ras-Raf disruption/FRET/MOA assay (BRAF RBD, Cyclophilin A); format: biochemical; conditions: read-out: KRAS G13C FRET IC50
In short: (§1)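 25 μM tagless Cyclophilin A, 12.5 nM His6-Ras-GMPPNP and 50 nM GST-BRAF RBD in HEPES pH 7.3 buffer with 5 mM MgCl2, with compound (10-point 3-fold series from 30 μM final) for 3 h at 25 °C. Anti-His Eu and anti-GST APC then added for 1.5 h. IC50 from TR-FRET ratio decrease versus DMSO.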

[2] = target: KRAS G12S (Homo sapiens (Human), UniProt P01116+P62937, G12S); test: as above; format: biochemical; conditions: read-out: KRAS G12S FRET IC50
In short: as §1

[3] = target: KRAS Q61H (Homo sapiens (Human), UniProt P01116+P62937, Q61H); test: as above; format: biochemical
In short: as §1

[4] = target: KRAS G13D (Homo sapiens (Human), UniProt P01116+P62937, G13D); test: as above; format: biochemical; conditions: read-out: KRAS G13D FRET data IC50
In short: as §1

[5] = target: NRAS G12C (Homo sapiens (Human), UniProt P01111+P62937, G12C); test: as above; format: biochemical; conditions: read-out: NRAS G12C FRET data IC50
In short: (§2)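 Measured: compound-facilitated Cyclophilin A:Ras complex blocking RAF RBD binding. Conditions: 12.5 nM Ras-GMPPNP, 50 nM BRAF RBD, 25 μM CypA, 3 h plus 1.5 h detection. Output: IC50 from TR-FRET ratio.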

[6] = target: KRAS G12D (Homo sapiens (Human), UniProt P01116+P62937, G12D); test: as above; format: biochemical; conditions: read-out: KRAS G12D FRET IC50
In short: as §1

[7] = target: KRAS G12C (Homo sapiens (Human), UniProt P01116+P62937, G12C); test: as above; format: biochemical; conditions: read-out: KRAS G12C FRET IC50
In short: as §1

[8] = target: KRAS G12V (Homo sapiens (Human), UniProt P01116+P62937, G12V); test: as above; format: biochemical; conditions: read-out: KRAS G12V FRET IC50
In short: as §1

[9] = target: KRAS WT (Homo sapiens (Human), UniProt P01116+P62937); test: as above; format: biochemical; conditions: read-out: KRAS WT FRET data IC50
In short: as §1

[10] = test system: Capan-1 cells (K-Ras G12V); test: CellTiter-Glo cell viability, Capan-1; format: cell-based, human; conditions: K-Ras G12V, 5-day treatment, read-out: Capan-1 Cell Viability IC50
In short: (§3)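 Endpoint: CellTiter-Glo luminescence on day 5, following ~30 min at room temperature. Data as (sample/mean DMSO)×100, four-parameter logistic fit.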

[11] = target: NRAS WT (Homo sapiens (Human), UniProt P01111+P62937); test: Ras-Raf disruption/FRET/MOA assay (BRAF RBD, Cyclophilin A); format: biochemical
In short: as §2

[12] = test system: NCI-H358 cells (K-Ras G12C); test: CellTiter-Glo cell viability, NCI-H358; format: cell-based, human; conditions: K-Ras G12C, 5-day treatment, read-out: H358 Cell Viability IC50
In short: as §3

[13] = test system: K-Ras G12C (NCI-H358 cells); test: Potency assay: pERK in NCI-H358 cells; format: cell-based, human; conditions: NCI-H358 cells, 4 hours, read-out: pERK EC50 (H358 KRAS G12C)
In short: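 Cells plated the day before were exposed for 4 h at 37° C, 5% CO2 to a 10-point, 3-fold DMSO dilution series (10 mM top stock), in duplicate. Phospho-ERK was read by AlphaLISA SureFire Ultra or by In-Cell Western with DRAQ5 DNA stain, and IC50 came from a 4-parameter sigmoidal fit.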

[14] = target: K-Ras G12C(GMP-PNP) binding to BRAF RBD (Homo sapiens (Human), UniProt P01116+P62937, G12C); test: Disruption of BRAF RBD interaction with K-Ras (FRET / MOA assay), K-Ras G12C; format: biochemical; conditions: read-out: KRAS G12C FRET IC50
In short: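 Incubation of compound (up to 30 μM final, 3-fold steps) with GMP-PNP-type loaded Ras isoform, cyclophilin A and BRAF RBD ran 3 h at 25° C, followed by 1.5 h with detection antibodies. Disruption appears as a reduced TR-FRET ratio compared with DMSO controls, expressed as IC50.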

[15] = test system: NCI-H358 (K-Ras G12C); test: CellTiter-Glo cell viability assay, NCI-H358; format: cell-based, human; conditions: 5-day treatment, read-out: H358 Cell Viability assay data (K-Ras G12C, IC50)
In short: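 After direct compound addition, plates were incubated to day 5 and equilibrated at room temperature for about 30 minutes before CellTiter-Glo reading. Values derive from luminescence relative to the DMSO mean, fitted with a four-parameter logistic model.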

NRAS WT, sequence (P01111 whole entry): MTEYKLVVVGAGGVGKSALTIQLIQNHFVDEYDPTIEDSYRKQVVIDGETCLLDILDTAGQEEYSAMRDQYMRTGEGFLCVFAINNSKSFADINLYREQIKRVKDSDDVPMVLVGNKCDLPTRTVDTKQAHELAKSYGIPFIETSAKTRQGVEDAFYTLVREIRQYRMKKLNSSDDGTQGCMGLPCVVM
NRAS WT, sequence (P62937 whole entry): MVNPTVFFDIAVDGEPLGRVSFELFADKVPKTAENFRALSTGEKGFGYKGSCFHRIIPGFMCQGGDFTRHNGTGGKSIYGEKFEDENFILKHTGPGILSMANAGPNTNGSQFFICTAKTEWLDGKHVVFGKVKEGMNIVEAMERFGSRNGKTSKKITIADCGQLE
NRAS G12C, sequence (P01111 whole entry G12C): as the sequence (P01111 whole entry) above, with G12C counted along it
NRAS G12C, sequence (P62937 whole entry): as the sequence (P62937 whole entry) above

Molecule	IC50 [1]	IC50 [2]	IC50 [3]	IC50 [4]	IC50 [5]	IC50 [6]	IC50 [7]	IC50 [8]	IC50 [9]	IC50 [11]	IC50 ([12]; Homo sapiens, NCI-H358, 120 h)	EC50 ([13]; Homo sapiens)	IC50 ([15]; Homo sapiens, NCI-H358, 120 h)	IC50 ([10]; Homo sapiens, CAPAN-1, 120 h)	IC50 [14]	IC50 [12]	IC50 [10]	IC50 [15]	EC50 [13]
CCn1c(-c2cccnc2[C@H](C)OC)c2c3cc(ccc31)-c1csc(n1)C[C@H](NC(=O)[C@H](C(C)C)N(C)C(=O)N1CC([C@@H](C)OC)C1)C(=O)N1CCC[C@H](N1)C(=O)OCC(C)(C)C2 [Compound A278]	100 to 1000 nM	100 to 1000 nM	10 to 100 nM	100 to 1000 nM	10 to 100 nM	100 to 1000 nM	10 to 100 nM	10 to 100 nM	10 to 100 nM	–	–	–	–	10 to 100 nM	–	–	–	–	–
CCn1c(-c2cccnc2[C@H](C)OC)c2c3cc(ccc31)-c1csc(n1)C[C@H](NC(=O)[C@H](C(C)C)N(C)C(=O)N1CC[C@@H]1C)C(=O)N1CCC[C@H](N1)C(=O)OCC(C)(C)C2 [Compound A304]	100 to 1000 nM	100 to 1000 nM	10 to 100 nM	100 to 1000 nM	10 to 100 nM	100 to 1000 nM	10 to 100 nM	100 to 1000 nM	100 to 1000 nM	10 to 100 nM	–	–	–	10 to 100 nM	–	–	–	–	–
CCn1c(-c2cccnc2[C@H](C)OC)c2c3cc(ccc31)-c1csc(n1)C[C@H](NC(=O)[C@H](C(C)C)N(C)C(=O)N1CCC1)C(=O)N1CCC[C@H](N1)C(=O)OCC(C)(C)C2 [Compound A399]	100 to 1000 nM	100 to 1000 nM	10 to 100 nM	100 to 1000 nM	10 to 100 nM	100 to 1000 nM	10 to 100 nM	10 to 100 nM	100 to 1000 nM	10 to 100 nM	–	–	–	10 to 100 nM	–	–	–	–	–
CCO[C@@H]1c2nc(cs2)-c2ccc3c(c2)c(c(-c2cccnc2[C@H](C)OC)n3CC)CC(C)(C)COC(=O)[C@@H]2CCCN(N2)C(=O)[C@H]1NC(=O)[C@H]1[C@H](C)[C@@H]1c1cn(C)cn1 [Compound A507, (1R,2S,3R)—N-((6^3S,3S,4S,Z)-3-ethoxy-1^1-ethyl-1^2-(2-((S)-1-methoxyethyl)pyridin-3-yl)-10, 10-dimethyl-5,7-dioxo-6^1,6^2,6^3,6^4,6^5,6^6-hexahydro-1^1H-8-oxa-2 (4,2)-thiazola-1 (5,3)-indola-6 (1,3)-pyridazinacycloundecaphane-4-yl)-2-methyl-3-(1-methyl-1H-imidazol-4-yl) cyclopropane-1-carboxamide]	10 to 100 nM	10 to 100 nM	10 to 100 nM	–	–	10 to 100 nM	10 to 100 nM	10 to 100 nM	–	–	–	–	–	–	100 to 1000 nM	10 to 100 nM	100 to 1000 nM	100 to 1000 nM	–
(2S)—N-[(8S,14S)-22-ethyl-4-hydroxy-18, 18-dimethyl-21-[6-(4-methylpiperazin-1-yl) pyridin-3-yl]-9,15-dioxo-16-oxa-10,22,28-triazapentacyclo [18.5.2.1^2,6.1^10,14.0^23,27]nonacosa-1 (26), 2,4,6 (29), 20,23 (27),24-heptaen-8-yl]-3-methyl-2-{N-methyl-1-[(3S)-1-(prop-2-enoyl) pyrrolidin-3-yl]formamido}butanamide [Compound A89]	10 to 100 nM	100 to 1000 nM	10 to 100 nM	–	–	100 to 1000 nM	100 to 1000 nM	100 to 1000 nM	–	–	–	–	–	–	–	–	1000 to 10000 nM	10 to 100 nM	< 5000 nM

Second part, led by results:

IC50 [1]	IC50 [2]	IC50 [3]	IC50 [4]	IC50 [5]	IC50 [6]	IC50 [7]	IC50 [8]	IC50 [9]	IC50 [11]	IC50 ([12]; Homo sapiens, NCI-H358, 120 h)	EC50 ([13]; Homo sapiens)	IC50 ([15]; Homo sapiens, NCI-H358, 120 h)	Molecule	IC50 ([10]; Homo sapiens, CAPAN-1, 120 h)	IC50 [14]	IC50 [12]	IC50 [10]	IC50 [15]	EC50 [13]
10 to 100 nM	10 to 100 nM	–	10 to 100 nM	10 to 100 nM	10 to 100 nM	10 to 100 nM	10 to 100 nM	10 to 100 nM	10 to 100 nM	10 to 100 nM	< 5000 nM	–	CCn1c(-c2cccnc2[C@H](C)OC)c2c3cc(ccc31)-c1cc(O)cc(c1)C[C@H](NC(=O)[C@H](C(C)C)N(C)C(=O)[C@@H]1OCC[C@@H]1c1ccccc1)C(=O)N1CCC[C@H](N1)C(=O)OCC(C)(C)C2 [Compound A415]	10 to 100 nM	–	–	–	–	–
10 to 100 nM	100 to 1000 nM	–	100 to 1000 nM	100 to 1000 nM	100 to 1000 nM	10 to 100 nM	100 to 1000 nM	100 to 1000 nM	–	100 to 1000 nM	–	10 to 100 nM	CCn1c(-c2cccnc2[C@H](C)OC)c2c3cc(ccc31)-c1cc(O)cc(c1)C[C@H](NC(=O)[C@H](C(C)C)N(C)C(=O)[C@H]1OCC[C@H]1N)C(=O)N1CCC[C@H](N1)C(=O)OCC(C)(C)C2 [Compound A420]	100 to 1000 nM	100 to 1000 nM	–	–	–	–
100 to 1000 nM	100 to 1000 nM	10 to 100 nM	100 to 1000 nM	10 to 100 nM	100 to 1000 nM	10 to 100 nM	100 to 1000 nM	100 to 1000 nM	10 to 100 nM	–	–	–	CCn1c(-c2cc(N3CCN(C)CC3)cnc2[C@H](C)OC)c2c3cc(ccc31)-c1csc(n1)C[C@H](NC(=O)[C@H](C(C)C)N(C)C(=O)[C@@H]1OCC[C@@H]1c1ccncc1)C(=O)N1CCC[C@H](N1)C(=O)OCC(C)(C)C2 [Compound A450]	–	–	–	–	–	–
100 to 1000 nM	100 to 1000 nM	10 to 100 nM	100 to 1000 nM	10 to 100 nM	100 to 1000 nM	10 to 100 nM	10 to 100 nM	10 to 100 nM	10 to 100 nM	10 to 100 nM	< 5000 nM	–	CCn1c(-c2cccnc2[C@H](C)OC)c2c3cc(ccc31)-c1csc(n1)C[C@H](NC(=O)[C@H](C(C)C)N(C)C(=O)N(C)N(C)C)C(=O)N1CCC[C@H](N1)C(=O)OCC(C)(C)C2 [Compound A454]	10 to 100 nM	–	–	–	–	–
10 to 100 nM	10 to 100 nM	10 to 100 nM	100 to 1000 nM	10 to 100 nM	100 to 1000 nM	10 to 100 nM	10 to 100 nM	10 to 100 nM	10 to 100 nM	–	–	–	CCn1c(-c2cc(N3CCN(C)CC3)cnc2[C@H](C)OC)c2c3cc(ccc31)-c1csc(n1)C[C@H](NC(=O)[C@H](C(C)C)N(C)C(=O)N1CC(C3COC3)C1)C(=O)N1CCC[C@H](N1)C(=O)OCC(C)(C)C2 [Compound A465]	–	–	–	–	–	–
100 to 1000 nM	100 to 1000 nM	10 to 100 nM	100 to 1000 nM	10 to 100 nM	100 to 1000 nM	10 to 100 nM	100 to 1000 nM	10 to 100 nM	10 to 100 nM	–	< 5000 nM	–	CCn1c(-c2cccnc2[C@H](C)OC)c2c3cc(ccc31)-c1csc(n1)C[C@H](NC(=O)[C@H](C(C)C)N(C)C(=O)N1CCOC3(COC3)C1)C(=O)N1CCC[C@H](N1)C(=O)OCC(C)(C)C2 [Compound A475]	10 to 100 nM	–	–	–	–	–
10 to 100 nM	10 to 100 nM	10 to 100 nM	100 to 1000 nM	10 to 100 nM	100 to 1000 nM	10 to 100 nM	10 to 100 nM	10 to 100 nM	10 to 100 nM	–	–	–	CCn1c(-c2cccnc2[C@H](C)OC)c2c3cc(ccc31)-c1csc(n1)C[C@H](NC(=O)[C@H](C(C)C)N(C)C(=O)N1CC(Cc3cnn(C)c3)C1)C(=O)N1CCC[C@H](N1)C(=O)OCC(C)(C)C2 [Compound A500]	–	–	–	–	–	–
